# Experimental data reported in BigSolDB 2.1.
smiles,measurement,setting,value
CC(=O)N[C@@H](CCC(N)=O)C(=O)O,solubility (mole fraction),"in methanol, 283.15 K",0.000974
same,solubility (mole fraction),"in methanol, 288.15 K",0.00112
same,solubility (mole fraction),"in methanol, 293.15 K",0.00132
same,solubility (mole fraction),"in methanol, 298.15 K",0.00149
same,solubility (mole fraction),"in methanol, 303.15 K",0.00176
same,solubility (mole fraction),"in methanol, 308.15 K",0.00206
same,solubility (mole fraction),"in methanol, 313.15 K",0.00243
same,solubility (mole fraction),"in methanol, 318.15 K",0.00281
same,solubility (mole fraction),"in methanol, 323.15 K",0.00318
same,solubility (mole fraction),"in methyl acetate, 283.15 K",0.000141
same,solubility (mole fraction),"in methyl acetate, 288.15 K",0.000167
same,solubility (mole fraction),"in methyl acetate, 293.15 K",0.000201
same,solubility (mole fraction),"in methyl acetate, 298.15 K",0.000245
same,solubility (mole fraction),"in methyl acetate, 303.15 K",0.000277
same,solubility (mole fraction),"in methyl acetate, 308.15 K",0.000315
same,solubility (mole fraction),"in methyl acetate, 313.15 K",0.000351
same,solubility (mole fraction),"in methyl acetate, 318.15 K",0.000401
same,solubility (mole fraction),"in methyl acetate, 323.15 K",0.000445
same,solubility (mole fraction),"in n-butanol, 283.15 K",8.9e-05
same,solubility (mole fraction),"in n-butanol, 288.15 K",0.000102
same,solubility (mole fraction),"in n-butanol, 293.15 K",0.000144
same,solubility (mole fraction),"in n-butanol, 298.15 K",0.000193
same,solubility (mole fraction),"in n-butanol, 303.15 K",0.000246
same,solubility (mole fraction),"in n-butanol, 308.15 K",0.000314
same,solubility (mole fraction),"in n-butanol, 313.15 K",0.000372
same,solubility (mole fraction),"in n-butanol, 318.15 K",0.000439
same,solubility (mole fraction),"in n-butanol, 323.15 K",0.000516
same,solubility (mole fraction),"in n-propanol, 283.15 K",0.000371
same,solubility (mole fraction),"in n-propanol, 288.15 K",0.000405
same,solubility (mole fraction),"in n-propanol, 293.15 K",0.000434
same,solubility (mole fraction),"in n-propanol, 298.15 K",0.000471
same,solubility (mole fraction),"in n-propanol, 303.15 K",0.000498
same,solubility (mole fraction),"in n-propanol, 308.15 K",0.00053
same,solubility (mole fraction),"in n-propanol, 313.15 K",0.000564
same,solubility (mole fraction),"in n-propanol, 318.15 K",0.000594
same,solubility (mole fraction),"in n-propanol, 323.15 K",0.000637
same,solubility (mole fraction),"in sec-butanol, 283.15 K",0.000347
same,solubility (mole fraction),"in sec-butanol, 288.15 K",0.000395
same,solubility (mole fraction),"in sec-butanol, 293.15 K",0.000452
same,solubility (mole fraction),"in sec-butanol, 298.15 K",0.000501
same,solubility (mole fraction),"in sec-butanol, 303.15 K",0.000554
same,solubility (mole fraction),"in sec-butanol, 308.15 K",0.000605
same,solubility (mole fraction),"in sec-butanol, 313.15 K",0.000661
same,solubility (mole fraction),"in sec-butanol, 318.15 K",0.000705
same,solubility (mole fraction),"in sec-butanol, 323.15 K",0.000757
same,solubility (mole fraction),"in water, 283.15 K",0.00214
same,solubility (mole fraction),"in water, 288.15 K",0.00233
same,solubility (mole fraction),"in water, 293.15 K",0.00265
same,solubility (mole fraction),"in water, 298.15 K",0.00297
same,solubility (mole fraction),"in water, 303.15 K",0.00358
same,solubility (mole fraction),"in water, 308.15 K",0.0043
same,solubility (mole fraction),"in water, 313.15 K",0.00492
same,solubility (mole fraction),"in water, 318.15 K",0.00587
same,solubility (mole fraction),"in water, 323.15 K",0.00767
